Active and inactive are the calls of the source. No cut-off for these calls is given here.

The target in the test is T1, Prolyl endopeptidase (Homo sapiens) (UniProt P48147).
T1 sequence (whole entry): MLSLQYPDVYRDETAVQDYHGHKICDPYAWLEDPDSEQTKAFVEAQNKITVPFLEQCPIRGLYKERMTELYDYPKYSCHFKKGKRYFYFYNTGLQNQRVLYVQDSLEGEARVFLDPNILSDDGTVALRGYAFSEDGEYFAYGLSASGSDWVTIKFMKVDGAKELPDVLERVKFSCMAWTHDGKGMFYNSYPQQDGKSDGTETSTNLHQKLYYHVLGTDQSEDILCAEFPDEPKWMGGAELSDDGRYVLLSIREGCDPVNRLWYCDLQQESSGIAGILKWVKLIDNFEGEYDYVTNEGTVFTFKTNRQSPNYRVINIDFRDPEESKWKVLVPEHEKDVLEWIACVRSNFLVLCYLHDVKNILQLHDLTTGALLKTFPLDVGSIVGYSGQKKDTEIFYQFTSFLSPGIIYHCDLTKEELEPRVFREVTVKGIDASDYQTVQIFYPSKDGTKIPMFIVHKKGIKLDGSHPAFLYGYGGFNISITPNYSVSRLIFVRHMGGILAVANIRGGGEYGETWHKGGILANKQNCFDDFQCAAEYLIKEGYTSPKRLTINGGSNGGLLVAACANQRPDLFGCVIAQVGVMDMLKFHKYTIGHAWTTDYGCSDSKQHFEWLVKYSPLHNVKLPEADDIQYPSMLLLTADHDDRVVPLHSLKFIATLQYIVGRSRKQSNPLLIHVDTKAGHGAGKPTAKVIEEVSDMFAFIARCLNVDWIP
Kind of test: Displacement of fluorophosphonate rhodamine from human cloned prolyl oligopeptidase expressed in Escherichia coli at 5 to 100 uM by SDS-PAGE.
Take `C#CCCCC(=O)N[C@@H](Cc1ccc(C(=O)c2ccccc2)cc1)C(=O)NCCOCCOCCOCCOCC(=O)N1CCC[C@H]1C(=O)N1CCC[C@H]1C=O`: the result was Active.
For `C#CCCCC(=O)N[C@@H](Cc1ccc(C(=O)c2ccccc2)cc1)C(=O)N1CCC[C@H]1C(=O)N1CCC[C@H]1C=O` the value was “Active”; for `C#CCCCC(=O)N[C@@H](Cc1ccc(C(=O)c2ccccc2)cc1)C(=O)NCCCCCC(=O)N1CCC[C@H]1C(=O)N1CCC[C@H]1C=O`, “Active”.

Source of the values: ChEMBL document CHEMBL1151936, “Using peptidyl aldehydes in activity-based proteomics” (Bioorg Med Chem Lett, 2009).
